Assay results: patent publication US20220257752A1, “NEW USE OF CYCLIC DINUCLEOTIDES” (priority 2019, published 2022)

B1: OVA: ovalbumin antigen (EndoGrade, Hyglos) given without adjuvant (protein, UniProt P01012 2-386, looked up)
Ovalbumin: GSIGAASMEFCFDVFKELKVHHANENIFYCPIAIMSALAMVYLGAKDSTRTQINKVVRFDKLPGFGDSIEAQCGTSVNVHSSLRDILNQITKPNDVYSFSLASRLYAEERYPILPEYLQCVKELYRGGLEPINFQTAADQARELINSWVESQTNGIIRNVLQPSSVDSQTAMVLVNAIVFKGLWEKAFKDEDTQAMPFRVTEQESKPVQMMYQIGLFRVASMASEKMKILELPFASGTMSMLVLLPDEVSGLEQLESIINFEKLTEWTSSNVMEERKIKVYLPRMKMEEKYNLTSVLMAMGITDVFSSSANLSGISSAESLKISQAVHAAHAEINEAGREVVGSAEAGVDAASVSEEFRADHPFLFCIKHIATNAVLFFGRCVSP

Columns and labels:
human cord blood = experiment: In vitro assay using human cord blood: cytokines in supernatant (multiplex array, IL-1β ELISA); format: cell-based
From the text: (§1) Adult peripheral blood for controls was collected from healthy volunteers. Cord blood was obtained by needle puncture of the umbilical cord vein right after delivery of healthy newborn donors at the Women's Clinic (Braunschweig Central Hospital). Signed informed consent from parents was obtained, ensuring that no ulterior modification of the genetic material contained or therapeutic use was involved in our study. Citrate anti-coagulated cord blood bags (Macopharma, France) were stored at room temperature before the in vitro assays.
(§2) Adult or cord blood was mixed 1:1 with 37° C. warm RPMI 1640 medium (Gibco) and incubated with adjuvants and controls according to previously described method (Dowling, D. J., et. al., 2013, PLoS One 8 (3):e58164.). Briefly, 20 μl of the adjuvants 10× were added to 180 μl of diluted blood in quadruplicates (in a 96 U shape well plate), and incubated at 37° C., 5% CO2 for 6 h. Supernatant fluids were assayed by flow cytometry in multiplex arrays (Biolegend) or in an ELISA reader for IL-1β (eBioscience).
(§3) One of the well-established methods to assess adjuvant immunogenicity in human neonates is the use of cord blood as a surrogate (Dowling, D. J., et. al., 2013, PLoS One 8 (3):e58164. doi:). Therefore, to assess the secretory cytokine profile elicited by CDA in neonates, we incubated cord and adult blood in the presence of adjuvants and controls for 6 h. A bead-based multiplexed immunoassay array was employed in order to detect cytokines in the supernatant. […] Remarkably, CDA increased the secretion of Th1 cytokines, which are important to counteract the Th2 bias present at birth (Debock, I., et. al., 2013, J Immunol 191 (3):1231-9. doi: 10.4049/jimmunol.1203288).

[1] = system: human adult peripheral blood; experiment: In vitro assay using human adult blood: cytokines in supernatant (multiplex array, IL-1β ELISA); format: cell-based
From the text: as §1, §2, §3

OVA-specific IgG = format: in vivo, mice; conditions: versus OVA alone, PBS and R848
[2] = system: H1N1 PR8 influenza A/WSN/33 (WSN)-OVA(I) strain; format: in vivo, mice
[3] = system: H1N1 influenza A/WSN/33 (WSN)-OVA(I) strain; format: in vivo, mice; conditions: mouse, in vivo

Molecule	Th17 cytokines (human cord blood; after treatment, blood type not given)	IL-9 (human cord blood; cord blood samples)	IL-6, IL-21 and IL-10 (Tfh profile cytokines) concentrations (human cord blood; cord blood, 6 h incubation)	TNF-α and IFN-γ (Th1 cytokines) concentrations in supernatant (human cord blood; cord blood, 6 h incubation, compared to R848 or medium)	stimulation of cytokines produced by Th2 and Th17 cells (human cord blood; cord blood, compared to R848 treatment and control cells)	IL-1β (pro-inflammatory cytokine) by ELISA (human cord blood; cord blood, with respect to R848)	IL-6, IL-21 and IL-10 (Tfh profile cytokines) concentrations ([1]; 6 h incubation)	TNF-α and IFN-γ (Th1 cytokines) concentrations in supernatant ([1]; 6 h incubation, compared to R848 or medium)	stimulation of cytokines produced by Th2 and Th17 cells ([1]; compared to R848 treatment and control cells)	IL-9 ([1]; over the other treatments)	IL-1β (pro-inflammatory cytokine) by ELISA ([1]; with respect to R848)	OVA-specific IgG titers in sera (OVA-specific IgG)	protection conferred ([2]; mouse, in vivo)	protective CTL response against influenza virus expressing a CD8 restricted epitope ([2]; mouse, in vivo)	differences in protection during the 48 h of maximal weight loss ([2]; versus the other adjuvants and controls, unpaired t test p≤0.05)	body weight over 14 days after challenge [3]	deaths after challenge ([2]; mouse, in vivo)
Nc1ncnc2c1ncn2[C@@H]1O[C@@H]2COP(=O)(O)O[C@H]3[C@@H](O)[C@H](n4cnc5c(N)ncnc54)O[C@@H]3COP(=O)(O)O[C@H]2[C@H]1O [CDA, cyclic bis(3′-5′)diadenylic acid]	particularly decreased	slightly decreased	higher concentrations	higher concentrations	more modest	slightly decreased	Slightly similar results	differences were not observed	more modest	difference was accentuated	slightly decreased	higher titers	significantly higher	able to promote a protective CTL response	significant		
CCOCc1nc2c(N)nc3ccccc3c2n1CC(C)(C)O [R848, reference compound]																lost weight	
B1																lost weight	no deaths
